Source: patent US10385038B2, “Pyridine substituted 2-aminopyridine protein kinase inhibitor crystal” (Chia Tai Tianqing Pharmaceutical Group Co., Ltd., priority 2015, dated 2019)
Read-outs that look alike come from different tables or passages of the source.

What was measured:
[1] = Pharmacokinetic test, intragastric administration to Beagle dogs, plasma LC-MS/MS; format: in vivo; details: for Cmax / AUC(0-t) / AUC(0-inf) / Tmax / bioavailability: both sexes, dog, plasma; for Cmax / AUC(0-t) / AUC(0-inf) / Tmax: po; for Cmax / AUC(0-t) / AUC(0-inf) / Tmax / t1/2z: suspension in 0.5% CMC-Na, citrate crystal 5.52 mg/kg, compound of Formula I 4 mg/kg (equimolar as base); for AUC(0-t): 0-36 h, trapezoidal; for AUC(0-inf): extrapolated Ct/λ; for Tmax: mean ± spread; for bioavailability: beagle, oral, crystal of citrate salt versus compound of Formula I
Text: In this study, LC-MS/MS was used to determine the plasma concentrations of drugs after the compound of Formula I and crystals of citrate salt thereof were intragastrically administered to Beagle dogs, and the effects of the crystals of citrate salt of the compound of Forumla I on the absorption behavior were observed.
The instrumentation system included the LC-10ADvp (Shimadzu, Japan) LC system and the TSQ Quantum Access triple quadrupole tandem mass spectrometer equipped with an electrospray ionization (ESI) source and Xcalibur 2.0.7 data processing system (Thermo Scientific, USA); the operating software was DAS2.1.1; other instruments were One hundred thousandth electronic balance (Mettler Toledo); Centrifugal rotary concentrator (LABCONCO, USA); High-speed refrigerated centrifuge (Model 5430-R, Eppendorf); Refrigerator (Model BCD-281E, Electrolux); Low temperature refrigerator (Model FORMA 700 SERIES, Thermo […]), etc.
Column: Thermo C18 LC column (size: 150 L×2.1 mm, 5 μm); column temperature: 40° C.; Mobile phase A: aqueous phase (containing 5 mM ammonium acetate and 0.1% formic acid); mobile phase B: methanol; gradient elution: 0.01 min, 20%; 0.5 min, 20%; 1.5 min, 80%; 4.5 min, 80%, 5 min, 20%, 6 min, stop (phase B). The flow rate was 0.3 mL/min. Benazeprilat was used as the internal standard for measurement.
The measurement was carried out by LC-MS/MS. The ion source was an ESI source and detection was performed in the positive ionization mode; the spray voltage was 3.8 kV; the heated capillary temperature was 350° C.; the pressure of the sheath gas (N2) was 35 Arb; the pressure of the auxiliary gas (N2) was 15 Arb; and voltages for collision induced dissociation (CID) were 25 eV and 25 eV (internal standard), respectively. The scanning mode was selective reaction monitoring (SRM), and the ion reactions for quantitative analysis were m/z 506.3-315.2 (the compound of Formula I) and m/z 397-351 (internal standard), respectively.
Six adult healthy beagle dogs, half male and half female, each weighing 9-11 kg, were randomly divided into two groups, and cross-administrated with the compound of Formula I and a crystal of citrate salt thereof.
After fasted for 12 h, the dogs were intragastrically administered with the crystal of citrate salt of the compound of Formula I and with the compound of Formula I (both were formulated with 0.5% CMC-Na as a suspension) at 5.52 mg/kg and 4 mg/kg (equimolar amounts based on the base form), respectively. A blank blood sample was taken before administration; and venous blood samples, about 1.0 ml each, were taken 0.5, 1, 2, 3, 4, 6, 8, 12, 14, 24, 36 hours after administration, placed in test tubes containing heparin, and centrifuged. The plasma fractions were isolated and stored at −80° C. After the washout period (7 days), the two groups of animals were each cross-administrated with the corresponding second drug, and the concentration of compound of Formula I in plasma samples was measured. The plasma concentration-time data for each test animal were input into a computer and the relevant pharmacokinetic parameters were calculated using the pharmacokinetic professional software DAS2.1.1, wherein Cmax and Tmax were measured values. AUC(0-t) and AUC(0-∞) are the area under the plasma concentration-time curve for the period of measurement and the total area under the plasma concentration-time curve, respectively. The AUC(0-t) was estimated by the trapezoidal method from the measured plasma concentrations, and the AUC(0-∞) was calculated from the AUC(0-t) plus the remaining area in the range t→∞, which can be calculated by the following equation: AUC(t-∞)=Ct/λ
In the above equation, Ct is the last plasma concentration measured, and λ is the elimination rate constant in the terminal portion of the plasma concentration.

[2] = Hygroscopicity test (Chinese Pharmacopoeia 2005, Appendix XIX J); format: physicochemical
[3] = Stability test (Chinese Pharmacopoeia 2010, Appendix XIX C), total impurities by HPLC; format: physicochemical; details: for Total impurities: citrate salt
Description: Stability was examined for 10 days under the conditions of 40° C., 60° C., 75% relative humidity (25° C.), 92.5% relative humidity (25° C.), or light illumination (5000 lx±500 lx), respectively. Samples were taken on day 0 and day 10, and the total impurities thereof were assayed by HPLC.
Column: Waters XBridge C18 (5 μm, 4.6×150 mm)
Mobile phase A: 0.01 M aqueous ammonium formate, to which 0.1% formic acid was added, and triethylamine was also added to adjust the pH to 7.4
Mobile phase B: acetonitrile
Linear gradient elution, with the following procedure: […]
Detection wavelength: diode array detector (280 nm)
Column temperature: 40° C.
Solvent: acetonitrile-water (1:1)
Preparation of the test solution: the solution was taken and accurately weighed, dissolved in a solvent and diluted to a solution at 1 mg per 1 mL, as the test solution.

[4] = 10 days at 40° C., 60° C., 75% RH, 92.5% RH or light

## COc1cc(N2CCNC[C@@H]2C)ncc1-c1cnc(N)c(O[C@H](C)c2c(Cl)ccc(F)c2Cl)c1 [Example 1, 5-((R)-1-(2,6-dichloro-3-fluorophenyl)ethoxy)-4′-methoxy-6′-((S)-2-methylpiperazin-1-yl)-3,3′-bipyridin-6-amine]
[1]
  Cmax: 0.05 ± 0.0208 µg/mL
  AUC(0-t): 0.502 ± 0.176 µg·h/mL
  AUC(0-inf): 0.517 ± 0.181 µg·h/mL
  Tmax: 3.17 ± 1.6 h
  t1/2z: 6.71 ± 2.55 h

## COc1cc(N2CCNC[C@@H]2C)ncc1-c1cnc(N)c(O[C@H](C)c2c(Cl)ccc(F)c2Cl)c1.O=C(O)CC(O)(CC(=O)O)C(=O)O [Example 2, 5-((R)-1-(2,6-dichloro-3-fluorophenyl)ethoxy)-4′-methoxy-6′-((S)-2-methylpiperazin-1-yl)-3,3′-bipyridin-6-amine citrate salt]
[2]
  Hygroscopic weight gain compared to the compound of Formula I and the other salts thereof (in words): obviously lower
[1]
  Degree and rate of absorption compared to the compound of Formula I (in words): better degree and rate of absorption
  Cmax: 0.063 ± 0.0292 µg/mL
  AUC(0-t): 0.57 ± 0.343 µg·h/mL
  AUC(0-inf): 0.586 ± 0.353 µg·h/mL
  Tmax: 2.33 ± 1.03 h
  t1/2z: 5.94 ± 1.59 h
[1]; from AUC(0-t), read-out: Relative bioavailability F1
  bioavailability: 114 ± 68.3%
[1]; from AUC(0-∞), read-out: Relative bioavailability F2
  bioavailability: 113 ± 68.3%
[3]; 40° C., 10 days, listed as crystal form A of citrate salt of the compound of Formula I
  Total impurities: 0.77%
[3]; 60° C., 10 days, listed as crystal form A of citrate salt of the compound of Formula I
  Total impurities: 0.89%
[3]; [4]
  Stability (in words): good stability
  Stability compared between crystal forms (in words): better than that of crystal form B
[3]; Initial state, 0 day, listed as crystal form A of citrate salt of the compound of Formula I
  Total impurities: 0.76%
[3]; Light illumination (5000 lx±500 lx), 10 days, listed as crystal form A of citrate salt of the compound of Formula I
  Total impurities: 0.78%
[3]; Relative humidity 75%, 25° C., 10 days, listed as crystal form A of citrate salt of the compound of Formula I
  Total impurities: 0.79%
[3]; Relative humidity 92.5%, 25° C., 10 days, listed as crystal form A of citrate salt of the compound of Formula I
  Total impurities: 0.77%

## COc1cc(N2CCNC[C@@H]2C)ncc1-c1cnc(N)c(O[C@H](C)c2c(Cl)ccc(F)c2Cl)c1.O=C(O)CC(O)(CC(=O)O)C(=O)O [Example 8, 5-((R)-1-(2,6-dichloro-3-fluorophenyl)ethoxy)-4′-methoxy-6′-((S)-2-methylpiperazin-1-yl)-3,3′-bipyridin-6-amine citrate salt]
[2]
  Hygroscopic weight gain compared to the compound of Formula I and the other salts thereof (in words): obviously lower
[3]; 40° C., 10 days, listed as crystal form B of citrate salt of the compound of Formula I
  Total impurities: 0.96%
[3]; 60° C., 10 days, listed as crystal form B of citrate salt of the compound of Formula I
  Total impurities: 1.19%
[3]; Initial state, 0 day, listed as crystal form B of citrate salt of the compound of Formula I
  Total impurities: 0.89%
[3]; Light illumination (5000 lx±500 lx), 10 days, listed as crystal form B of citrate salt of the compound of Formula I
  Total impurities: 0.99%
[3]; Relative humidity 75%, 25° C., 10 days, listed as crystal form B of citrate salt of the compound of Formula I
  Total impurities: 0.94%
[3]; Relative humidity 92.5%, 25° C., 10 days, listed as crystal form B of citrate salt of the compound of Formula I
  Total impurities: 0.95%

## COc1cc(N2CCNC[C@@H]2C)ncc1-c1cnc(N)c(O[C@H](C)c2c(Cl)ccc(F)c2Cl)c1.O=C(O)CC(O)(CC(=O)O)C(=O)O [Example 12, 5-((R)-1-(2,6-dichloro-3-fluorophenyl)ethoxy)-4′-methoxy-6′-((S)-2-methylpiperazin-1-yl)-3,3′-bipyridin-6-amine citrate salt]
[2]
  Hygroscopic weight gain compared to the compound of Formula I and the other salts thereof (in words): obviously lower
